The values that follow come from patent publication US9969742B2, “Imidazotriazinone compounds” (Ironwood Pharmaceuticals, Inc., priority 2012, dated 2018).

This test addresses T1, PDE9A2 (Homo sapiens, UniProt O76083).
T1 construct: purchased Reaction Biology Corporation, Malvern, Pa
The test is described as follows: Phosphodiesterase enzyme screening assay, PDE9A2. The test is classed as biochemical. Conditions: read-out: Band (PDE9A2 IC50). The source says:
Compounds of the invention were screened against PDE1A, PDE1B, PDE2A, PDE3A, PDE3B, PDE4A1A, PDE4B1, PDE4D3, PDE5A1, PDE6C, PDE7A, PDE8A1, PDE9A2, PDE10A2 AND PDE11A isoforms of the phosphodiesterase enzyme to determine activity and overall selectivity through comparative analysis. […] Where 8-methoxy-IBMX and Zaprinast were used as reference inhibitors.
The phosphodiesterase enzyme isoforms were obtained from a commercial retailer (Reaction Biology Corporation, Malvern, Pa.) for use in the instant screening assay.
The analysis was completed using the Caliper LabChip 3000 and a 12-sipper LabChip. LabChip assays are separations-based, meaning that the product and substrate are electrophoretically separated, thereby minimizing interferences and yielding the highest data quality available on any screening platform. […] High Z′ values, few false positives, few false negatives and analytical quality reproducibility are the reasons cited for the increasing reliance on the LabChip assays.
The off-chip incubation mobility-shift phosphodiesterase assay uses a microfluidic chip to measure the conversion of a fluorescent cyclic AMP substrate to a 5′-AMP product, or a cyclic GMP substrate to a 5′-GMP product. The reaction mixture, from a microtiter plate well, is introduced through a capillary sipper onto the chip, where the fluorescent substrate and product are separated by electrophoresis and detected via laser-induced fluorescence. […] The precision of microfluidics allows researchers to detect subtle interactions between drug candidates and therapeutic targets.
Reactions were carried out in 100 mM HEPES (pH 7.5), 5 mM MgCl2, 1 mM DTT, 0.003% Brij, 4.0 μM cGMP substrate. The reaction was started by addition of cGMP or cAMP and incubated for 1 hour at R.T. The reaction was terminated by the addition of stop buffer containing 100 mM HEPES (pH 7.5), 15 mM EDTA, 0.015% Brij-35, 5% DMSO. Cyclic AMP/GMP substrate and 5′-AMP/5′-GMP product were separated by charge using electrophoretic mobility shift. Product formed was compared to control wells to determine inhibition or enhancement of enzyme activity.
Data points were averages of quadruplicate wells and error bars represented the SEM for each point.

Setting [1] is: Table 1, 10 concentrations, 4.0 μM cGMP substrate, 1 hour at R.T.
[2] abbreviates: 4.0 μM cGMP substrate, 1 hour at R.T.
Setting [3] is: Table 2, 10 concentrations, 4.0 μM cGMP substrate, 1 hour at R.T.

Each structure is given as a SMILES string. Where two headings read alike, the source gives them in different places.

T1 sequence (O76083 1-533 isoform O76083-2): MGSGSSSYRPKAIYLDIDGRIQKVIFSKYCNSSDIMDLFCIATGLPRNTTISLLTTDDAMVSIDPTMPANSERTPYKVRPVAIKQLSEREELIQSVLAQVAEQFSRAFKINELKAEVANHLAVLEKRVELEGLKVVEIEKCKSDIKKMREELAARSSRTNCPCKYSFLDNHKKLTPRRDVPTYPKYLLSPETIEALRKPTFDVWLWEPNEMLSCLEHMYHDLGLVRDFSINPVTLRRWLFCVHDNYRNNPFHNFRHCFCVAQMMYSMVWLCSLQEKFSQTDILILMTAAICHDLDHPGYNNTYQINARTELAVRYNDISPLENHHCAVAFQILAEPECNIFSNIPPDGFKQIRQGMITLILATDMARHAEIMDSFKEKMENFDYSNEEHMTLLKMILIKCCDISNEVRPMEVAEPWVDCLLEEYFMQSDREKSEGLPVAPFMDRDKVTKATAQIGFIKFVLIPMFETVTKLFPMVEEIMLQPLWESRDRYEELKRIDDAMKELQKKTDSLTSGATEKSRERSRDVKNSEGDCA

The term IC50 denotes the midpoint of a concentration-inhibition curve. Consider `Cc1cnc(CN2C[C@@H](C)[C@H](c3nn4c(C5CCOCC5)ncc4c(=O)[nH]3)C2)cn1` (relative stereo) [(+)-2-((3,4-trans)-4-methyl-1-((5-methylpyrazin-2-yl)methyl)pyrrolidin-3-yl)-7-(tetrahydro-2H-pyran-4-yl)imidazo[5,1-f][1,2,4]triazin-4(3H)-one], for which the IC50 under setting [1] is < 1000 nM.

Consider `Cc1ccc(Cl)cc1-c1ncc2c(=O)[nH]c([C@@H]3CNC[C@H]3C)nn12` (relative stereo) [(−)-7-(5-chloro-2-methylphenyl)-2-((3,4-trans)-4-methylpyrrolidin-3-yl)imidazo[5,1-f][1,2,4]triazin-4(3H)-one], for which the IC50 under setting [1] fell in the range of 1000 to 10000 nM.

As to `CC1CN(Cc2ccccc2)CC1c1nn2c(C3CCN(C)CC3)ncc2c(=O)[nH]1` (single isomer, unassigned) [2-((3,4-trans)-1-benzyl-4-methylpyrrolidin-3-yl)-7-(1-methylpiperidin-4-yl)imidazo[5,1-f][1,2,4]triazin-4(3H)-one], under setting [1], the IC50 fell in the range of 1000 to 10000 nM.

Consider `CC1CN(Cc2ccc(F)cc2)CC1c1nn2c(-c3ccccc3C(F)(F)F)ncc2c(=O)[nH]1` (single isomer, unassigned; (+)), for which the IC50 under setting [2] was < 1000 nM.

For `CC1CN(Cc2ccccc2)CC1c1nn2c(-c3ccccc3C(F)(F)F)ncc2c(=O)[nH]1` (single isomer, unassigned; (+)), the IC50 under setting [2] is < 1000 nM.

As for `CC1CN(C(C)c2ccccc2)CC1c1nn2c(C3CCOCC3)ncc2c(=O)[nH]1` (single isomer, unassigned; (+)) [listing 1 of 2 here], the IC50 under setting [1] lay within 1000 to 10000 nM.

Take `CC1CN(C(C)c2ccccc2)CC1c1nn2c(C3CCOCC3)ncc2c(=O)[nH]1` (single isomer, unassigned; (+)) [listing 2 of 2 here]: the IC50 under setting [1] is < 1000 nM.

As for `CC1CN(CC2CCNCC2)CC1c1nn2c(C3CCOCC3)ncc2c(=O)[nH]1` (single isomer, unassigned; (+)), the IC50 is < 1000 nM.

With `CC1CN(Cc2ncccn2)CC1c1nn2c(-c3ccccc3C(F)(F)F)ncc2c(=O)[nH]1` (single isomer, unassigned; (+)), the IC50 under setting [2] is < 1000 nM.

With `CC1CN(Cc2ccc(Cl)cc2)CC1c1nn2c(-c3cccc(F)c3)ncc2c(=O)[nH]1` (single isomer, unassigned; (+)) [(+)-2-((3,4-trans)-1-(4-chlorobenzyl)-4-methylpyrrolidin-3-yl)-7-(3-fluorophenyl)imidazo[5,1-f][1,2,4]triazin-4(3H)-one], the IC50 lay in the range of 1000 to 10000 nM.

Regarding `CC1CN(C(=O)c2ccc(F)cc2)CC1c1nn2c(C3CCOCC3)ncc2c(=O)[nH]1` (single isomer, unassigned; (+)) [(+)-2-((3,4-trans)-1-(4-fluorobenzoyl)-4-methylpyrrolidin-3-yl)-7-(tetrahydro-2H-pyran-4-yl)imidazo[5,1-f][1,2,4]triazin-4(3H)-one], under setting [1], the IC50 is 1000 to 10000 nM.

With `Cc1cnccc1-c1ncc2c(=O)[nH]c(C3CN(Cc4ccc(F)cc4)CC3C)nn12` (single isomer, unassigned; (+)) [(+)-2-((3,4-trans)-1-(4-fluorobenzyl)-4-methylpyrrolidin-3-yl)-7-(3-methylpyridin-4-yl) imidazo [5,1-f] [1,2,4] triazin-4 (3H)-one], under setting [2], the IC50 was < 1000 nM.

`Cc1ccncc1-c1ncc2c(=O)[nH]c(C3CN(Cc4ccc(F)cc4)CC3C)nn12` (single isomer, unassigned; (+)) [(+)-2-((3,4-trans)-1-(4-fluorobenzyl)-4-methylpyrrolidin-3-yl)-7-(4-methylpyridin-3-yl)imidazo[5,1-f][1,2,4]triazin-4(3H)-one]: the half-maximal inhibitory concentration (IC50) was < 1000 nM.

Turning to `CC1CN(Cc2nc3ccccc3[nH]2)CC1c1nn2c(-c3ccc(F)cc3)ncc2c(=O)[nH]1` (single isomer, unassigned; (+)) [(+)-2-((3,4-trans)-1-((1H-benzo[d]imidazol-2-yl)methyl)-4-methylpyrrolidin-3-yl)-7-(4-fluorophenyl)imidazo[5,1-f][1,2,4]triazin-4(3H)-one], the IC50 is < 1000 nM.

`CC1CN(S(=O)(=O)c2ccccc2F)CC1c1nn2c(C3CCOCC3)ncc2c(=O)[nH]1` (single isomer, unassigned; (+)) [(+)-2-((3,4-trans)-1-((2-fluorophenyl)sulfonyl)-4-methylpyrrolidin-3-yl)-7-(tetrahydro-2H-pyran-4-yl)imidazo[5,1-f][1,2,4]triazin-4(3H)-one]: the IC50 under setting [1] is < 1000 nM.

For the molecule `CC1CN(S(=O)(=O)c2cccc(F)c2)CC1c1nn2c(C3CCOCC3)ncc2c(=O)[nH]1` (single isomer, unassigned; (+)) [(+)-2-((3,4-trans)-1-((3-fluorophenyl)sulfonyl)-4-methylpyrrolidin-3-yl)-7-(tetrahydro-2H-pyran-4-yl)imidazo[5,1-f][1,2,4]triazin-4(3H)-one], the IC50 under setting [1] was < 1000 nM.

Regarding `CC1CN(Cc2nc(C(F)(F)F)cc(C(F)(F)F)n2)CC1c1nn2c(C3CCOCC3)ncc2c(=O)[nH]1` (single isomer, unassigned; (+)) [(+)-2-((3,4-trans)-1-((4,6-bis(trifluoromethyl)pyrimidin-2-yl)methyl)-4-methylpyrrolidin-3-yl)-7-(tetrahydro-2H-pyran-4-yl)imidazo[5,1-f][1,2,4]triazin-4(3H)-one], the IC50 under setting [3] was < 1000 nM.

With `CC1CN(S(=O)(=O)c2ccc(F)cc2)CC1c1nn2c(C3CCOCC3)ncc2c(=O)[nH]1` (single isomer, unassigned; (+)) [(+)-2-((3,4-trans)-1-((4-fluorophenyl)sulfonyl)-4-methylpyrrolidin-3-yl)-7-(tetrahydro-2H-pyran-4-yl)imidazo[5,1-f][1,2,4]triazin-4(3H)-one], the IC50 under setting [1] was < 1000 nM.

`CC1CN(Cc2ncc(F)c(N3CCOCC3)n2)CC1c1nn2c(C3CCOCC3)ncc2c(=O)[nH]1` (single isomer, unassigned; (+)) [(+)-2-((3,4-trans)-1-((5-fluoro-4-morpholinopyrimidin-2-yl)methyl)-4-methylpyrrolidin-3-yl)-7-(tetrahydro-2H-pyran-4-yl)imidazo[5,1-f][1,2,4]triazin-4(3H)-one]: the IC50 under setting [3] is < 1000 nM.

As to `CC1CN(Cc2nc3ccccn3n2)CC1c1nn2c(-c3ccccc3C(F)(F)F)ncc2c(=O)[nH]1` (single isomer, unassigned; (+)) [(+)-2-((3,4-trans)-1-([1,2,4]triazolo[1,5-a]pyridin-2-ylmethyl)-4-methylpyrrolidin-3-yl)-7-(2-(trifluoromethyl)phenyl)imidazo[5,1-f][1,2,4]triazin-4(3H)-one], the IC50 under setting [2] was < 1000 nM.

Turning to `CC1CN(Cc2nc3ccccn3n2)CC1c1nn2c(-c3ccccc3F)ncc2c(=O)[nH]1` (single isomer, unassigned; (+)) [(+)-2-((3,4-trans)-1-([1,2,4]triazolo[1,5-a]pyridin-2-ylmethyl)-4-methylpyrrolidin-3-yl)-7-(2-fluorophenyl)imidazo[5,1-f][1,2,4]triazin-4(3H)-one], the IC50 under setting [2] is < 1000 nM.

For `Cc1cnccc1-c1ncc2c(=O)[nH]c(C3CN(Cc4nc5ccccn5n4)CC3C)nn12` (single isomer, unassigned; (+)) [(+)-2-((3,4-trans)-1-([1,2,4]triazolo[1,5-a]pyridin-2-ylmethyl)-4-methylpyrrolidin-3-yl)-7-(3-methylpyridin-4-yl)imidazo[5,1-f][1,2,4]triazin-4(3H)-one], under setting [2], the IC50 is < 1000 nM.

With `CC1CN(Cc2nc3ccccn3n2)CC1c1nn2c(-c3ccccc3)ncc2c(=O)[nH]1` (single isomer, unassigned; (+)) [(+)-2-((3,4-trans)-1-([1,2,4]triazolo[1,5-a]pyridin-2-ylmethyl)-4-methylpyrrolidin-3-yl)-7-phenylimidazo[5,1-f][1,2,4]triazin-4(3H)-one], the concentration for half-maximal inhibition (IC50) is < 1000 nM.

Consider `CC1CN(CC2CCCC2)CC1c1nn2c(C3CCOCC3)ncc2c(=O)[nH]1` (single isomer, unassigned; (+)) [(+)-2-((3,4-trans)-1-(cyclopentylmethyl)-4-methylpyrrolidin-3-yl)-7-(tetrahydro-2H-pyran-4-yl)imidazo[5,1-f][1,2,4]triazin-4(3H)-one], for which the IC50 is < 1000 nM.

In the case of `CC1CN(CC2CC2)CC1c1nn2c(C3CCOCC3)ncc2c(=O)[nH]1` (single isomer, unassigned; (+)) [(+)-2-((3,4-trans)-1-(cyclopropylmethyl)-4-methylpyrrolidin-3-yl)-7-(tetrahydro-2H-pyran-4-yl)imidazo[5,1-f][1,2,4]triazin-4(3H)-one], the IC50 lay in the range of 1000 to 10000 nM.
